Laboratory results taken from ChEMBL document CHEMBL4308841, “Synthesis, in vitro antiproliferative activity, and kinase inhibitory effects of pyrazole-containing diarylureas and diarylamides” (Eur J Med Chem, 2018).

How the values were obtained:
SK-MEL-2 = assay: Growth inhibition of human SK-MEL-2 cells assessed as cell growth at 10 uM incubated for 48 hrs by sulforhodamine B assay relative to control; type: functional; details: SK-MEL-2, 48 h, read-out: Activity
HT-29 [1] = assay: Growth inhibition of human HT-29 cells incubated for 48 hrs by sulforhodamine B assay; type: functional, cell-based; details: HT-29, 48 h
MDA-MB-435 [2] = assay: Growth inhibition of human MDA-MB-435 cells incubated for 48 hrs by sulforhodamine B assay; type: functional, cell-based; details: MDA-MB-435, 48 h
IGROV-1 [3] = assay: Growth inhibition of human IGROV1 cells incubated for 48 hrs by sulforhodamine B assay; type: functional, cell-based; details: IGROV-1, 48 h
OVCAR-3 [4] = assay: Growth inhibition of human OVCAR3 cells incubated for 48 hrs by sulforhodamine B assay; type: functional, cell-based; details: OVCAR-3, 48 h
SK-OV-3 = assay: Growth inhibition of human SKOV3 cells incubated for 48 hrs by sulforhodamine B assay; type: functional, cell-based; details: SK-OV-3, 48 h
RXF 393 = assay: Growth inhibition of human RXF393 cells incubated for 48 hrs by sulforhodamine B assay; type: functional, cell-based; details: RXF 393, 48 h
HL-60(TB) = assay: Growth inhibition of human HL-60(TB) cells assessed as cell growth at 0.01 uM incubated for 48 hrs by sulforhodamine B assay relative to control; type: functional; details: HL-60, 48 h, read-out: Activity
NCI-H226 = assay: Growth inhibition of human NCI-H226 cells assessed as cell growth at 0.01 uM incubated for 48 hrs by sulforhodamine B assay relative to control; type: functional; details: NCI-H226, 48 h, read-out: Activity
HCT-15 = assay: Growth inhibition of human HCT15 cells assessed as cell growth at 0.01 uM incubated for 48 hrs by sulforhodamine B assay relative to control; type: functional; details: HCT-15, 48 h, read-out: Activity
KM12 = assay: Growth inhibition of human KM12 cells assessed as cell growth at 0.01 uM incubated for 48 hrs by sulforhodamine B assay relative to control; type: functional; details: KM12, 48 h, read-out: Activity
IGROV-1 [5] = assay: Growth inhibition of human IGROV1 cells assessed as cell growth at 0.01 uM incubated for 48 hrs by sulforhodamine B assay relative to control; type: functional; details: IGROV-1, 48 h, read-out: Activity
A498 = assay: Growth inhibition of human A498 cells assessed as cell growth at 0.01 uM incubated for 48 hrs by sulforhodamine B assay relative to control; type: functional; details: A498, 48 h, read-out: Activity
DU-145 = assay: Growth inhibition of human DU145 cells assessed as cell growth at 0.01 uM incubated for 48 hrs by sulforhodamine B assay relative to control; type: functional; details: DU-145, 48 h, read-out: Activity
Hs-578T = assay: Growth inhibition of human Hs578T cells assessed as cell growth at 0.01 uM incubated for 48 hrs by sulforhodamine B assay relative to control; type: functional; details: read-out: Activity
MDA-MB-468 = assay: Growth inhibition of human MDA-MB-468 cells assessed as cell growth at 0.01 uM incubated for 48 hrs by sulforhodamine B assay relative to control; type: functional; details: MDA-MB-468, 48 h, read-out: Activity
U-251 = assay: Growth inhibition of human U251 cells assessed as cell growth at 0.1 uM incubated for 48 hrs by sulforhodamine B assay relative to control; type: functional; details: U-251, 48 h, read-out: Activity
MDA-MB-435 [6] = assay: Growth inhibition of human MDA-MB-435 cells assessed as cell growth at 0.1 uM incubated for 48 hrs by sulforhodamine B assay relative to control; type: functional; details: MDA-MB-435, 48 h, read-out: Activity
BT-549 = assay: Growth inhibition of human BT549 cells assessed as cell growth at 0.1 uM incubated for 48 hrs by sulforhodamine B assay relative to control; type: functional; details: BT-549, 48 h, read-out: Activity
HCT-116 = assay: Growth inhibition of human HCT116 cells assessed as cell growth at 1 uM incubated for 48 hrs by sulforhodamine B assay relative to control; type: functional; details: HCT-116, 48 h, read-out: Activity
SK-MEL-28 = assay: Growth inhibition of human SK-MEL-28 cells assessed as cell growth at 1 uM incubated for 48 hrs by sulforhodamine B assay relative to control; type: functional; details: SK-MEL-28, 48 h, read-out: Activity
IGROV-1 [7] = assay: Growth inhibition of human IGROV1 cells assessed as cell growth at 1 uM incubated for 48 hrs by sulforhodamine B assay relative to control; type: functional; details: IGROV-1, 48 h, read-out: Activity
OVCAR-3 [8] = assay: Growth inhibition of human OVCAR3 cells assessed as cell growth at 1 uM incubated for 48 hrs by sulforhodamine B assay relative to control; type: functional; details: OVCAR-3, 48 h, read-out: Activity
CCRF-CEM = assay: Growth inhibition of human CCRF-CEM cells assessed as cell growth at 100 uM incubated for 48 hrs by sulforhodamine B assay relative to control; type: functional; details: read-out: Activity
HOP-62 = assay: Growth inhibition of human HOP62 cells assessed as cell growth at 100 uM incubated for 48 hrs by sulforhodamine B assay relative to control; type: functional; details: HOP-62, 48 h, read-out: Activity
HT-29 [9] = assay: Growth inhibition of human HT-29 cells assessed as cell growth at 100 uM incubated for 48 hrs by sulforhodamine B assay relative to control; type: functional; details: HT-29, 48 h, read-out: Activity
UACC-257 = assay: Growth inhibition of human UACC257 cells assessed as cell growth at 100 uM incubated for 48 hrs by sulforhodamine B assay relative to control; type: functional; details: UACC-257, 48 h, read-out: Activity
786-0 = assay: Growth inhibition of human 786-0 cells assessed as cell growth at 100 uM incubated for 48 hrs by sulforhodamine B assay relative to control; type: functional; details: 786-0, 48 h, read-out: Activity
T47D = assay: Growth inhibition of human T47D cells assessed as cell growth at 100 uM incubated for 48 hrs by sulforhodamine B assay relative to control; type: functional; details: read-out: Activity
[10] = read-out: LC50 (the source's name)
[11] = read-out: pLC50 (the source's name) (converted)

SMILES: COc1cc(Cl)cc(-c2nn(-c3cccc(NC(=O)Nc4cc(C(F)(F)F)cc(C(F)(F)F)c4)c3)cc2-c2ccncc2)c1
- growth at 10 µM (SK-MEL-2): -38.1%
- IC50 (HT-29 [1]): 450 nM
- GI50 (HT-29 [1]; read-out: GI50): 453 nM
- CC50 (HT-29 [1]; [10]): 12.6 nM
- TGI (HT-29 [1]; read-out: TGI): 2210 nM
- GI50 (HT-29 [1]; read-out: pGI50 (converted)): 457 nM
- CC50 (HT-29 [1]; [11]): 12900 nM
- TGI (HT-29 [1]; read-out: pTGI (converted)): 2820 nM
- IC50 (MDA-MB-435 [2]): 430 nM
- GI50 (MDA-MB-435 [2]; read-out: GI50): 425 nM
- LC50 (MDA-MB-435 [2]; read-out: LC50): 11.5 nM
- TGI (MDA-MB-435 [2]; read-out: TGI): 2030 nM
- GI50 (MDA-MB-435 [2]; read-out: pGI50 (converted)): 427 nM
- LC50 (MDA-MB-435 [2]; read-out: pLC50 (converted)): 11700 nM
- TGI (MDA-MB-435 [2]; read-out: pTGI (converted)): 2040 nM
- IC50 (IGROV-1 [3]): 570 nM
- GI50 (IGROV-1 [3]; read-out: GI50): 572 nM
- CC50 (IGROV-1 [3]; [10]): > 100000 nM
- TGI (IGROV-1 [3]; read-out: TGI): 12600 nM
- GI50 (IGROV-1 [3]; read-out: pGI50 (converted)): 575 nM
- CC50 (IGROV-1 [3]; [11]): > 100000 nM
- TGI (IGROV-1 [3]; read-out: pTGI (converted)): 12600 nM
- IC50 (OVCAR-3 [4]): 330 nM
- GI50 (OVCAR-3 [4]; read-out: GI50): 334 nM
- TGI (OVCAR-3 [4]; read-out: TGI): 1410 nM
- GI50 (OVCAR-3 [4]; read-out: pGI50 (converted)): 331 nM
- CC50 (OVCAR-3 [4]; [11]): 34700 nM
- TGI (OVCAR-3 [4]; read-out: pTGI (converted)): 1410 nM
- IC50 (SK-OV-3): 770 nM
- GI50 (SK-OV-3; read-out: GI50): 770 nM
- CC50 (SK-OV-3; [10]): 41.2 nM
- TGI (SK-OV-3; read-out: TGI): 5750 nM
- GI50 (SK-OV-3; read-out: pGI50 (converted)): 776 nM
- CC50 (SK-OV-3; [11]): 41700 nM
- TGI (SK-OV-3; read-out: pTGI (converted)): 5750 nM
- IC50 (RXF 393): 1260 nM
- LC50 (RXF 393): 14800 nM
- TGI (RXF 393; read-out: TGI): 3920 nM
- GI50 (RXF 393; read-out: pGI50 (converted)): 1260 nM
- TGI (RXF 393; read-out: pTGI (converted)): 3890 nM
- growth at 0.01 µM (HL-60(TB)): 92%
- growth at 0.01 µM (NCI-H226): 101%
- growth at 0.01 µM (HCT-15): 93%
- growth at 0.01 µM (KM12): 97%
- growth at 0.01 µM (IGROV-1 [5]): 103%
- growth at 0.01 µM (A498): 64%
- growth at 0.01 µM (DU-145): 104%
- growth at 0.01 µM (Hs-578T): 97%
- growth at 0.01 µM (MDA-MB-468): 97%
- growth at 0.1 µM (U-251): 91%
- growth at 0.1 µM (MDA-MB-435 [6]): 98%
- growth at 0.1 µM (BT-549): 89%
- growth at 1 µM (HCT-116): 7%
- growth at 1 µM (SK-MEL-28): 46%
- growth at 1 µM (IGROV-1 [7]): 33%
- growth at 1 µM (OVCAR-3 [8]): 5%
- growth at 100 µM (CCRF-CEM): -29%
- growth at 100 µM (HOP-62): -60%
- growth at 100 µM (HT-29 [9]): -96%
- growth at 100 µM (UACC-257): -88%
- growth at 100 µM (786-0): -70%
- growth at 100 µM (T47D): -22%
